Results reported in US8143254B2, “Methods for modulating ion channels” (Cornell Research Foundation, Inc., priority 2005, dated 2012).

Tests used:
Kv4.2 = biological target: T1, Kv4.2 (Homo sapiens, UniProt Q9NZV8); assay: TEVC of X. laevis oocytes expressing Kv4.2; format: cell-based
T1 construct: expressed in transfected cells; host or cells: Xenopus laevis oocytes (cRNA injection, pRAT vector)
T1 sequence (Q9NZV8 1-630): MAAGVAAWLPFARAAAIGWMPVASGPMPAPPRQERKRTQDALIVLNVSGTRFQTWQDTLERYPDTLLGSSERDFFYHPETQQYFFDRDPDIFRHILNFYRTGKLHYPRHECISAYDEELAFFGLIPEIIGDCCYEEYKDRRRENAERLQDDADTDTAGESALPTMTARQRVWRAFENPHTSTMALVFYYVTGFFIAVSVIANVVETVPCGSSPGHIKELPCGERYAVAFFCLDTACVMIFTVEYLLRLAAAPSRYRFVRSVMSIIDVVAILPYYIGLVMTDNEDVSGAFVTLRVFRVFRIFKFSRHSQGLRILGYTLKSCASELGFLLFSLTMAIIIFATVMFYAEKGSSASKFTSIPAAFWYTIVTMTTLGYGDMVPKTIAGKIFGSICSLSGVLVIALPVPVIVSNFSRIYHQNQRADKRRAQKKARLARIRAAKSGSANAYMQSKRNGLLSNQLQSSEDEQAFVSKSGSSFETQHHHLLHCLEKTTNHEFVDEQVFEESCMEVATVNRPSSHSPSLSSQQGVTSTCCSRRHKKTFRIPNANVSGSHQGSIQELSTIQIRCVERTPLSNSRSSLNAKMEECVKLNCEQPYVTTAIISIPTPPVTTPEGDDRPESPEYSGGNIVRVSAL
From the text: Kv2.1 mutants were constructed using the QuickChange Multi Site-Directed Mutagenesis Kit (Stratagene, La Jolla, Calif.). Mutant Kv2.1 genes (in the pGA1 oocyte expression vector for oocyte expression) were sequenced in their entirety to confirm appropriate mutations and check for inadvertent mutations, and then subcloned into a wild-type pGA1 backbone. For oocyte expression, Kv3.4 was in pBF1, Kv4.2 was in pRAT. cRNA transcripts were produced from SacII-linearized (Kv2.1), Mlullinearized (Kv3.4) and Not1-linearized (Kv4.2) DNA templates using the T3 (Kv2.1), SP6 (Kv3.4) and T7 (Kv4.2) mMessage mMachine kits (Ambion, Austin, Tex.). cRNA was quantified by spectrophotometry and its size integrity verified by gel electophoresis. Defolliculated stage V and VI Xenopus laevis oocytes (purchased from Nasco, Grand Island, N.Y.) were injected with 5 ng of cRNA encoding Kv2.1, Kv3.4 or Kv4.2. Chinese Hamster Ovary (CHO) cells were transfected with 0.25 μg Kv2.1 cDNA, 2 μg blank plasmid and 2 μg Green fluorescent Protein in pBOB using Supetfect transfection reagent (Qiagen) 24 hours before whole-cell voltage clamp studies.
(§1) Whole-cell two-electrode voltage-clamp (TEVC) recordings were performed on X laevis oocytes expressing cloned Kv2.1, Kv3.4 or Kv4.2 using a Warner OC-725C amplifier and pClamp9 (Axon Instruments, Foster City, Calif.) software. Oocytes were bathed in a small-volume Warner oocyte bath and viewed with a Fisher dissection microscope. Bath solution for whole-cell oocyte recordings was (in mM): 96 NaCl, 4 KCl, 0.7 MgCl2, 1 CaCl2, 10 HEPES (pH 7.4); whole-cell oocyte TEVC pipettes were of 0.2-2 M resistance when filled with 3 M KCl. Experiments were performed 24-48 hours after cRNA injection. For assessment of current-voltage relationships in the absence or presence of dabco derivatives, oocytes were held at −80 mV, stepped for 2 seconds at voltages between −80 mV and +60 mV in 20 mV steps (Kv2.1) or between −80 and +50 mV in 10 mV steps (Kv3.4), then held for 500 ms at −40 mV before returning to the holding potential. […]

oocytes = assay: Toxicity / nonspecific leak in oocytes during dose-response recording; format: cell-based, Xenopus laevis
Protocol: as §1, with “potential. For assessment of block during wash-in of dabco derivatives at a single voltage, oocytes were held at −80 mV, and repetitively stepped to 0 mV for 2 s with an interpulse interval of 10 s or 60 s as indicated.” for “potential.”

c1cc(C[N+]23CCN(CC2)CC3)ccc1C[N+]12CCN(CC1)CC2 [JC638.2α, α,α′-[bis(4-aza-1-azoniabicyclo[2.2.2]octanyl)]p-xylene]
block of Kv4.2 (Kv4.2; 0.5 mM): 38%

CCCCCCCCCCCC[N+]12CCN(CC1)CC2 [JE188, 1-aza-4-azonia-4-dodecylbicyclo[2.2.2]octane]
block of Kv4.2 (Kv4.2; 100 μM): 3%

C(CC[N+]12CCN(CC1)CC2)C[N+]12CCN(CC1)CC2 [TG26]
toxicity to oocytes (oocytes; doses required to produce >50% block): toxic to the oocytes

C(CCCC[N+]12CCN(CC1)CC2)CCC[N+]12CCN(CC1)CC2 [TG27, 1,8-[bis(4-aza-1-azoniabicyclo[2.2.2]octanyl)]octane]
block of Kv4.2 (Kv4.2; 1 mM): 3%
concentration at which nonspecific leak began (oocytes; Kv3.4 dose response): above 1 mM
